A short description of data set [1]: Detection probes on interproximal models of extracted human teeth. Particulars: for optical signal of early stage caries lesion with bound probe (photograph): synthetic tooth preparation, FIG. 3-8. As to the method:
Interproximal models of extracted human teeth (molars and premolars) were fabricated using silicon impression materials. Interproximal enamel caries at about […] depth and at about 1.5 mm depth were prepared by using areas of interproximal contact regions. The dental preparations having synthetic caries were assessed by radiographic films (bitewings) and a microscope.
A cotton ball was saturated with the detection probe, and placed in contact with the region of the interproximal enamel caries. The bound probe was observed by illuminating over a varying set of different wavelengths of excitation light, followed by detecting light of fluorescent emissions. Furthermore, absorbance of the illuminating wavelengths was detected as appropriate for each probe.
Each tooth preparation having interproximal enamel caries and bound probe was illuminated and photographed.
(§1) Probes were tested for appropriate concentration, kinetics of binding and retention. Intensity of the illumination light, and the size of the illumination light beam were varied, and data were recorded for each probe. […] The concentration of each probe was varied to determine an optimum concentration for binding during a time period suitable for dental use. Durations of contacting were also tested, for example about 10 seconds, about 20 seconds, about 40 seconds, or about 60 seconds.

The conditions of data set [2]: part of regular human diet or excess excreted; cited from earlier work.
Data set [3] in a line: Intensity and duration of fluorescence of diluted probes bound to caries. Particulars: deep and shallow lesions. The method, then: as §1
The conditions of data set [4]: cited from earlier work.
A short description of data set [5]: Hydrogen peroxide removal of OsteoSense 750 from five teeth having caries, absorbance at 750 nm. The note with it: teeth A to E.

Molecules are shown by their SMILES. “And” between values parts separate entries of the source, which are not always exact repeats. Identical values can stand only once.

In the case of `C=Cc1c(C)c2cc3nc(c4c5[n-]c(cc6nc(cc1[n-]2)C(C)=C6CC)c(C)c5C(=O)[C@@H]4C(=O)OC)[C@@H](CCC(=O)OC/C=C(\C)CCC[C@H](C)CCC[C@H](C)CCCC(C)C)[C@@H]3C.[Mg+2]` [Chlorophyll A], the “interproximal caries observed with probe” value in data set [1] (excitation light, emission detected, FIG. 9) is on record as “Interproximal caries were observed”. Further, the “optical signal of early stage caries lesion with bound probe (photograph)” value (shortened to “optical signal … with bound probe (photograph)”) in data set [1] is “Fluorescence of an early stage caries lesion was observed”. The known toxicity entry in data set [2] is “no known toxicity”.
For the molecule `CCN1C(=CC=CC=CC=CC2=[N+](CCCCCC(=O)O)c3ccc(S(=O)(=O)O)cc3C2(C)C)C(C)(C)c2cc(S(=O)(=O)[O-])ccc21` [Cy7], the “fluorescent intensity compared to IR820 (ICG)” value in data set [3] (1:10 and 1:100 dilutions) was “greater fluorescent intensity at each concentration and lesion depth compared to IR820 (ICG)”. For the same molecule, in data set [3] (diluted 1:10), the “retained fluorescence intensity compared to CardioGreen (ICG)” value was “retained much greater intensity in both deep and shallow lesions compared to images of CardioGreen (ICG) diluted 1:10”.
`COc1cccc2c1C(=O)c1c(O)c3c(c(O)c1C2=O)C[C@@](O)(C(=O)CO)C[C@@H]3O[C@H]1C[C@H](N)[C@H](O)[C@H](C)O1` [Doxorubicin]: the “optical signal … with bound probe (photograph)” value in data set [1] is given as “Fluorescence of an early stage caries lesion was observed”.
`C1=Cc2cc3ccc(cc4nc(cc5ccc(cc1n2)[nH]5)C=C4)[nH]3` [Porphyrin]: the “optical signal … with bound probe (photograph)” value in data set [1] was “Fluorescence of an early stage caries lesion was observed”. For the same molecule, the known toxicity result in data set [2] is “no known toxicity”.
As for `Cc1cc2nc3c(=O)[nH]c(=O)nc-3n(C[C@H](O)[C@H](O)[C@H](O)CO)c2cc1C` [Riboflavin], the water solubility result in data set [4] is listed as “water soluble”.
For `OO` [hydrogen peroxide], the “% OsteoSense 750 removed (g)” value in data set [5] is 80% and 93% and 88%.

The values above are taken from patent publication US8647119B1, “Methods and kits with fluorescent probes for caries detection” (President and Fellows of Harvard College, priority 2006, dated 2014).
